Assay results as given in the supplement of paper PMC10307832.

Experiments:
Experiment in all cases: relative viability (nuclei count vs DMSO), 5 days (fraction); higher = more cells survive
A-427 = test system: A-427
How it was run: (§1)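 Relative viability was taken as the ratio of nuclei in treated wells to nuclei in vehicle wells. Lung cancer cell lines in 1536-well plates received compounds by pin tool one day after seeding, either one drug alone or a fixed anchor-drug dose plus five library-drug doses (not always all listed) in √10 steps. Nuclei were counted on 4× images after 5 days of treatment, and values are medians of duplicate plates.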

HCC-15 = test system: HCC-15
How it was run: as §1

HCC-78 = test system: HCC-78
How it was run: as §1

HOP-62 = test system: HOP-62
How it was run: as §1

LC-2-ad = test system: LC-2-ad
How it was run: as §1

LXF-289 = test system: LXF-289
How it was run: as §1

NCI-H1734 = test system: NCI-H1734
How it was run: as §1

NCI-H1755 = test system: NCI-H1755
How it was run: as §1

NCI-H1792 = test system: NCI-H1792
How it was run: as §1

NCI-H1915 = test system: NCI-H1915
How it was run: as §1

NCI-H1975 = test system: NCI-H1975
How it was run: as §1

NCI-H2126 = test system: NCI-H2126
How it was run: as §1

NCI-H2228 = test system: NCI-H2228
How it was run: as §1

NCI-H2342 = test system: NCI-H2342
How it was run: as §1

NCI-H2347 = test system: NCI-H2347
How it was run: as §1

NCI-H358 = test system: NCI-H358
How it was run: as §1

NCI-H522 = test system: NCI-H522
How it was run: as §1

NCI-H647 = test system: NCI-H647
How it was run: as §1

PC-3 [JPC-3] = test system: PC-3 [JPC-3]
How it was run: as §1

RERF-LC-KJ = test system: RERF-LC-KJ
How it was run: as §1

SK-LU-1 = test system: SK-LU-1
How it was run: as §1

SW 1573 = test system: SW 1573
How it was run: as §1

## O=c1cc(N2CCOCC2)oc2c(-c3cccc4c3sc3ccccc34)cccc12 + Nc1nc2[nH]cc(CCc3ccc(C(=O)N[C@@H](CCC(=O)O)C(=O)O)cc3)c2c(=O)[nH]1 [Pemetrexed] (partner 0.2 µM)
A-427; first compound 0.01 µM
  relative viability: 0.944
A-427; first compound 0.03162 µM
  relative viability: 1.01
A-427; first compound 0.1 µM
  relative viability: 0.954
A-427; first compound 0.3162 µM
  relative viability: 0.993
A-427; first compound 1 µM
  relative viability: 0.945
HCC-15; first compound 0.01 µM
  relative viability: 0.214
HCC-15; first compound 0.03162 µM
  relative viability: 0.221
HCC-15; first compound 0.1 µM
  relative viability: 0.225
HCC-15; first compound 0.3162 µM
  relative viability: 0.205
HCC-15; first compound 1 µM
  relative viability: 0.195
HCC-78; first compound 0.01 µM
  relative viability: 0.897
HCC-78; first compound 0.03162 µM
  relative viability: 0.886
HCC-78; first compound 0.1 µM
  relative viability: 0.933
HCC-78; first compound 0.3162 µM
  relative viability: 0.877
HCC-78; first compound 1 µM
  relative viability: 0.979
HOP-62; first compound 0.01 µM
  relative viability: 0.303
HOP-62; first compound 0.03162 µM
  relative viability: 0.344
HOP-62; first compound 0.1 µM
  relative viability: 0.276
HOP-62; first compound 0.3162 µM
  relative viability: 0.39
HOP-62; first compound 1 µM
  relative viability: 0.384
LC-2-ad; first compound 0.01 µM
  relative viability: 0.267
LC-2-ad; first compound 0.03162 µM
  relative viability: 0.284
LC-2-ad; first compound 0.1 µM
  relative viability: 0.282
LC-2-ad; first compound 0.3162 µM
  relative viability: 0.279
LC-2-ad; first compound 1 µM
  relative viability: 0.304
LXF-289; first compound 0.01 µM
  relative viability: 0.879
LXF-289; first compound 0.03162 µM
  relative viability: 0.925
LXF-289; first compound 0.1 µM
  relative viability: 0.913
LXF-289; first compound 0.3162 µM
  relative viability: 0.864
LXF-289; first compound 1 µM
  relative viability: 0.963
NCI-H1734; first compound 0.01 µM
  relative viability: 0.453
NCI-H1734; first compound 0.03162 µM
  relative viability: 0.425
NCI-H1734; first compound 0.1 µM
  relative viability: 0.406
NCI-H1734; first compound 0.3162 µM
  relative viability: 0.412
NCI-H1734; first compound 1 µM
  relative viability: 0.396
NCI-H1755; first compound 0.01 µM
  relative viability: 0.476
NCI-H1755; first compound 0.03162 µM
  relative viability: 0.441
NCI-H1755; first compound 0.1 µM
  relative viability: 0.425
NCI-H1755; first compound 0.3162 µM
  relative viability: 0.414
NCI-H1755; first compound 1 µM
  relative viability: 0.445
NCI-H1792; first compound 0.01 µM
  relative viability: 0.835
NCI-H1792; first compound 0.03162 µM
  relative viability: 0.901
NCI-H1792; first compound 0.3162 µM
  relative viability: 0.836
NCI-H1792; first compound 1 µM
  relative viability: 0.759
NCI-H1915; first compound 0.01 µM
  relative viability: 0.495
NCI-H1915; first compound 0.03162 µM
  relative viability: 0.534
NCI-H1915; first compound 0.1 µM
  relative viability: 0.486
NCI-H1915; first compound 0.3162 µM
  relative viability: 0.441
NCI-H1915; first compound 1 µM
  relative viability: 0.486
NCI-H1975; first compound 0.01 µM
  relative viability: 0.309
NCI-H1975; first compound 0.03162 µM
  relative viability: 0.27
NCI-H1975; first compound 0.1 µM
  relative viability: 0.294
NCI-H1975; first compound 0.3162 µM
  relative viability: 0.267
NCI-H1975; first compound 1 µM
  relative viability: 0.309
NCI-H2126; first compound 0.01 µM
  relative viability: 0.713
NCI-H2126; first compound 0.03162 µM
  relative viability: 0.72
NCI-H2126; first compound 0.1 µM
  relative viability: 0.636
NCI-H2126; first compound 0.3162 µM
  relative viability: 0.668
NCI-H2126; first compound 1 µM
  relative viability: 0.674
NCI-H2228; first compound 0.01 µM
  relative viability: 0.342
NCI-H2228; first compound 0.03162 µM
  relative viability: 0.356
NCI-H2228; first compound 0.1 µM
  relative viability: 0.396
NCI-H2228; first compound 0.3162 µM
  relative viability: 0.356
NCI-H2228; first compound 1 µM
  relative viability: 0.355
NCI-H2342; first compound 0.01 µM
  relative viability: 0.795
NCI-H2342; first compound 0.03162 µM
  relative viability: 0.753
NCI-H2342; first compound 0.1 µM
  relative viability: 0.772
NCI-H2342; first compound 0.3162 µM
  relative viability: 0.755
NCI-H2342; first compound 1 µM
  relative viability: 0.784
NCI-H2347; first compound 0.01 µM
  relative viability: 0.458
NCI-H2347; first compound 0.03162 µM
  relative viability: 0.472
NCI-H2347; first compound 0.1 µM
  relative viability: 0.415
NCI-H2347; first compound 0.3162 µM
  relative viability: 0.433
NCI-H2347; first compound 1 µM
  relative viability: 0.44
NCI-H358; first compound 0.01 µM
  relative viability: 0.166
NCI-H358; first compound 0.03162 µM
  relative viability: 0.179
NCI-H358; first compound 0.1 µM
  relative viability: 0.181
NCI-H358; first compound 0.3162 µM
  relative viability: 0.18
NCI-H358; first compound 1 µM
  relative viability: 0.173
NCI-H522; first compound 0.01 µM
  relative viability: 1.11
NCI-H522; first compound 0.03162 µM
  relative viability: 1.02
NCI-H522; first compound 0.1 µM
  relative viability: 1.08
NCI-H522; first compound 0.3162 µM
  relative viability: 1.13
NCI-H522; first compound 1 µM
  relative viability: 0.831
NCI-H647; first compound 0.01 µM
  relative viability: 0.187
NCI-H647; first compound 0.03162 µM
  relative viability: 0.183
NCI-H647; first compound 0.1 µM
  relative viability: 0.184
NCI-H647; first compound 0.3162 µM
  relative viability: 0.209
NCI-H647; first compound 1 µM
  relative viability: 0.178
PC-3 [JPC-3]; first compound 0.01 µM
  relative viability: 1.09
PC-3 [JPC-3]; first compound 0.03162 µM
  relative viability: 1.14
PC-3 [JPC-3]; first compound 0.1 µM
  relative viability: 1.05
PC-3 [JPC-3]; first compound 0.3162 µM
  relative viability: 1.1
PC-3 [JPC-3]; first compound 1 µM
  relative viability: 1.1
RERF-LC-KJ; first compound 0.01 µM
  relative viability: 0.474
RERF-LC-KJ; first compound 0.03162 µM
  relative viability: 0.478
RERF-LC-KJ; first compound 0.1 µM
  relative viability: 0.492
RERF-LC-KJ; first compound 0.3162 µM
  relative viability: 0.489
RERF-LC-KJ; first compound 1 µM
  relative viability: 0.423
SK-LU-1; first compound 0.01 µM
  relative viability: 0.963
SK-LU-1; first compound 0.03162 µM
  relative viability: 0.975
SK-LU-1; first compound 0.1 µM
  relative viability: 1.02
SK-LU-1; first compound 0.3162 µM
  relative viability: 1
SK-LU-1; first compound 1 µM
  relative viability: 0.953
SW 1573; first compound 0.01 µM
  relative viability: 0.847
SW 1573; first compound 0.03162 µM
  relative viability: 0.937
SW 1573; first compound 0.1 µM
  relative viability: 0.824
SW 1573; first compound 0.3162 µM
  relative viability: 0.857
SW 1573; first compound 1 µM
  relative viability: 0.778
